Measurements published in patent US20100297023A1, “Lipid” (priority 2006, published 2010).

Key:
[1] = test system: mouse apoB gene; assay: Down-regulation of the apoB gene in vivo (liver, real time PCR); set-up: species or system Balb/C mice; details: tail vein, liver at 48 h
Description: Lipid-siRNA AB nanoparticles with CDAN and DODAG were prepared at final lipid:siRNA ratios of 2.5 and 3, respectively. These values correspond to the optimal ratios to completely retard the siRNA on a precast 0.8% agarose gel (Invitrogen). All lipid-siRNA AB nanoparticle complexes were made in water at a final concentration of 0.5 mg siRNA/mL in water.
Experimental The appropriate amounts of CDAN and DODAG from stock solutions in water (5 mg/mL and 2 mg/mL, respectively) were pipetted into a 25 mL falcon plastic tube. The appropriate amount of anti-apoB siRNA from a stock solution of 10 mg/mL was added slowly to the respective lipid solution while vortexing the falcon tube. The appropriate amount of a solution of trehalose (100%, w/v in water) was added and the sample vortexed heavily for 10 s. The samples were then sonicated in a water bath for 15 mins to generate homogenous emulsions. 15 mins prior to the injection of the samples into Balb/C mice, 1.5M NaCl was added so that each lipid-siRNA AB nanoparticle preparation contained a final concentration of 150 mM NaCl. 200 μL aliquots were injected via tail vein and the animals left for 48 h before sacrificing. The liver was extracted and immediately put into a solution of RNAlater (Ambion). The total RNA was extracted using RNAeasy columns (Qiagen), and quantified both by UV absorption (λ=260 nm) and by densiometry of the bands on a 2% agarose formaldehyde gel.
1 μg of the total RNA was reversed transcribed to generate cDNA in a total volume of 20 μL. After completion of the reaction, the total reaction volume was supplemented to 40 μL with water. From this solution, 1 μL was used to do real time PCR (Sybr green) using the forward primer 5′-[…] (SEQ ID NO: 26) and the reverse primer 5′-[…] (SEQ ID NO:27) on an Applied Biosystem 7700 machine. The data were analysed using the ABI prism software (FIG. 4).

[2] = test system: siRNA; assay: Agarose gel retardation assay of siRNA with lipid; format: physicochemical; details: for optimal lipid:siRNA ratio to completely retard the siRNA: precast 0.8% agarose gel, anti-apoB siRNA
Description: Gel retardation assay. In order to define the optimal ratio between lipid:siRNA to achieve full complexation of the nucleic acid which is manifested by a complete retardation in an electrical field, different ratios of lipid:siRNA (0-3) were produced and aliquots run on precast 0.8% agarose gels (Invitrogen). For this purpose, 1 μg siRNA were pipetted into 0.5 mL eppendorf tubes complemented with distilled water to 10 μL. The appropriate amount of lipid from a stock in water (2 mg/mL) were added to generate lipid:siRNA ratios between 0 and 3. All samples were vortexed and the whole reaction mixture pipetted to the individual wells of 0.8% pre-cast agarose gels and run at 50V/10 mA for 20 mins (FIG. 2). […] Therefore, for all future in vivo experiments, a ratio of 3:1 (lipid:siRNA) was chosen.

[3] = test system: CyPB mRNA in HeLa cells; assay: Down-regulation of the cyclophilin B gene in vitro (real time PCR); format: cell-based, human; details: lipid:siRNA ratios lower than 13:1 (w/w)
Description: Experimental 4 μg (3.74 μL) siRNA were complemented with 770 μL OptiMEM and 52 μg (26 μL) DODAG (2 mg/mL, water) added under vortexing. The DODAG-siRNA AB nanoparticles were allowed to stand for 5 mins at room temperature. 200 μL of the DODAG-siRNA AB nanoparticle solution were pipetted to two wells of a six well plate containing HeLa cells (250,000), and the cells incubated at 37° C. for 3 h under CO2 regime. The cells were then washed with warm PBS and incubated for another 48 h before lysing and extracting the total RNA using RNAeasy extraction columns (Qiagen). The same protocol was employed with CDAN. For DOGS, the protocol as recommended by the manufacturer was applied. The quality of the total RNA was verified on a 2% agarose formaldehyde gel, and the RNA quantified by UV (260 nm). 1 μg RNA of each sample was reverse transcribed to generate cDNA which was real time PCRed using standard protocols with Sybr green. The CyPB levels were standardized to β-actin levels for each sample (FIG. 3).

Compound | down-regulation of the apoB mRNA in vivo ([1]; 5 mg siRNA/kg animal) | down-regulation of the apoB mRNA in vivo ([1]; 15 mg siRNA/kg animal) | optimal lipid:siRNA ratio to completely retard the siRNA [2] | specific down-regulation of CyPB in vitro [3] | N/P ratio at which the movement of siRNA was entirely retarded ([2]; agarose gel, assuming cationic charge of 1.5 per DODAG)
CC(C)CCC[C@@H](C)[C@H]1CC[C@H]2[C@@H]3CC=C4C[C@@H](OC(=O)NCCNCCCNCCN)CC[C@]4(C)[C@H]3CC[C@]12C [CDAN, N^1-cholesteryloxycarbonyl-3,7-diazanonane-1,9-diamine] | did not mediate down-regulation | did not mediate down-regulation | 2.5 | – | –
CCCCCCCCCCCCCCCCCCN(CCCCCCCCCCCCCCCCCC)C(=O)CNC(=O)CCNCCCNCCN [DODAG, N′,N′-dioctadecyl-N-4,8-diaza-10-aminodecanoylglycine amide] | > 60% | – | 3 | unsuccessful | 1.8
